In doi:10.1101/2024.12.09.627564, “Cannabinoid inhibition of mechanosensitive K^+ channels” (bioRxiv, 2024):
Positions count from the first letter of the chain named.

Columns and labels:
[1] = parameters: method as in PMID 32804502; settings: slice recordings; cited from earlier work
[2] = molecular target: T1, TRAAKG165R (Homo sapiens, UniProt Q9NYG8, G139R); assay: Excised patch recording of TRAAK mutant G165R; assay type: biochemical
T1 construct: The transcribed messages encode H. sapiens TRAAK amino acids 1–393; expressed in transfected cells; host or cells: Xenopus laevis oocytes, cRNA injection
T1 sequence (Q9NYG8 1-393 G139R): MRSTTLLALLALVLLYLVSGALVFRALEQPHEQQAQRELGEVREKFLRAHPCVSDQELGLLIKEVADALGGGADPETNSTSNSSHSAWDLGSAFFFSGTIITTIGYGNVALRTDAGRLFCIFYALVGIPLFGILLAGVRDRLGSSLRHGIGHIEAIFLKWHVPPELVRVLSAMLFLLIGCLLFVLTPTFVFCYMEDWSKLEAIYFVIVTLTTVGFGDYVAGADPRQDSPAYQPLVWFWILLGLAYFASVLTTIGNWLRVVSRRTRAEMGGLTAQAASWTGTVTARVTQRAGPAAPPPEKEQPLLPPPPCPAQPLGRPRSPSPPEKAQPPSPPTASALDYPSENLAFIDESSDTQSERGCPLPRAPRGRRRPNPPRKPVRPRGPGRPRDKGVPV
Description: For patch clamp recording from Xenopus oocytes, genes encoding full-length Homo sapiens TRAAK (UniProt Q9NYG8–2), TREK-1 (UniProt O95069), and TREK-2 (UniProt P57789) were codon optimized for eukaryotic expression, synthesized (Genewiz), and cloned into a modified pGEMHE vector using Xho1 and EcoR1 restriction sites. The transcribed messages encode H. sapiens TRAAK amino acids 1–393, TREK-1 amino acids 1–426, or TREK-2 amino acids 1–538 with an additional three amino acids (SNS) at the C terminus. TRAAK mutants were introduced by polymerase chain reaction (PCR). Linearized DNA was transcribed in vitro using T7 polymerase. […] Currents were recorded at 25 °C from inside-out patches excised from oocytes 1 to 5 d after RNA injection. […]
(§1) Patches were evaluated with voltage-step protocols to confirm TRAAK expression and minimal non-specific leak based on reversal potential. Currents were recorded using an Axopatch 200B amplifier (Molecular Devices) at a bandwidth of 1 kHz and digitized with an Digidata 1550B (Molecular Devices) at 100–500 kHz using pClamp10.7 software. […] In an effort to minimize variability associated with differences in resting membrane tension, we targeted patches with low basal curvature and low resting channel activity and ensured measured pressure difference across the patch was as close to zero as possible at rest to prevent mechanical activation of channels. […]

[3] = molecular target: T2, TRAAKA198E (Homo sapiens, UniProt Q9NYG8, A172E); assay: Excised patch recording of TRAAK mutant A198E; assay type: biochemical
T2 construct: The transcribed messages encode H. sapiens TRAAK amino acids 1–393; expressed in transfected cells; host or cells: Xenopus laevis oocytes, cRNA injection
T2 sequence (Q9NYG8 1-393 A172E): T1 sequence (Q9NYG8 1-393 G139R) with R139G, A172E
Description: For patch clamp recording from Xenopus oocytes, genes encoding full-length Homo sapiens TRAAK (UniProt Q9NYG8–2), TREK-1 (UniProt O95069), and TREK-2 (UniProt P57789) were codon optimized for eukaryotic expression, synthesized (Genewiz), and cloned into a modified pGEMHE vector using Xho1 and EcoR1 restriction sites. The transcribed messages encode H. sapiens TRAAK amino acids 1–393, TREK-1 amino acids 1–426, or TREK-2 amino acids 1–538 with an additional three amino acids (SNS) at the C terminus. TRAAK mutants were introduced by polymerase chain reaction (PCR). Linearized DNA was transcribed in vitro using T7 polymerase. Complementary RNA (0.1 to 10 ng for TRAAK, TREK-1, TREK-2, and mutants) in 50 nL H2O was injected into Xenopus laevis oocytes extracted from anesthetized frogs. Currents were recorded at 25 °C from inside-out patches excised from oocytes 1 to 5 d after RNA injection. […]
as §1, with “channels. Data were analyzed using Clampfit 10.7, Excel, and Graphpad Prism software.” for “channels.”
To avoid cannabinoid absorption to plastic, cannabinoid solutions were made in glass vials and diluted by weight, perfusion was performed using glass tubing pulled from borosilicate glass Pasteur pipettes (Fisherbrand, Cat# 13–678-20C), and recordings were performed in glass chambers. Channel activity was continuously recorded during perfusion steps. […]

[4] = system: BK; parameters: method as in PMID 38708937; settings: inhibition; cited from earlier work

## C=C(C)[C@@H]1CCC(C)=C[C@H]1c1c(O)cc(CCCCC)cc1O [CBD, Cannabidiol]
[1]
  concentration at which antiepileptic effects are observed: ≤ 100 nM
[2]
  IC50: 356 ± 18 nM
[3]
  IC50: 496 ± 26 nM
[3]; 10 μM CBD
  inhibition of channel activity at high concentration: fully inhibited
[3]; A198E vs wild-type
  fold less sensitive than wild-type TRAAK: ~ 4 fold
[4]
  IC50: 280 nM
